From ChEMBL document CHEMBL4699519, “Natural and Semisynthetic Chalcones as Dual FLT3 and Microtubule Polymerization Inhibitors” (J Nat Prod, 2020)
Active and inactive are the calls of the source. The rule behind the calls is not given here.

Columns and labels:
[1] = system: Receptor-type tyrosine-protein kinase FLT3 (Homo sapiens), P36888 [UNDEFINED MUTATION]; test: Inhibition of FLT3 ITD mutant in human MV4-11 cells assessed as inhibition of ERK phosphorylation at 25 to 50 uM incubated for 2 hrs by immunoblotting analysis; format: cell-based; details: dose microM 25-50, time 2.0 hrs
MV4-11 [2] = test: Antiproliferative activity against human MV4-11 cells assessed as reduction in cell viability at 50 uM after 72 hrs by MTS assay relative to control; format: functional
MOLM-13 [3] = test: Antiproliferative activity against human MOLM-13 cells assessed as reduction in cell viability after 72 hrs by MTS assay; format: functional
THP-1 = test: Antiproliferative activity against human THP-1 cells assessed as reduction in cell viability after 72 hrs by MTS assay; format: functional
K562 [4] = test: Antiproliferative activity against human K562 cells assessed as reduction in cell viability at 50 uM after 72 hrs by MTS assay relative to control; format: functional
[5] = target: Receptor-type tyrosine-protein kinase FLT3 (Homo sapiens) (UniProt P36888); test: Inhibition of FLT3 (unknown origin) at 100 uM in presence of ATP relative to control
MV4-11 [6] = test: Antiproliferative activity against human MV4-11 cells assessed as reduction in cell viability at 25 uM after 72 hrs by MTS assay relative to control; format: functional
MV4-11 [7] = test: Antiproliferative activity against human MV4-11 cells assessed as reduction in cell viability after 72 hrs by MTS assay; format: functional
K562 [8] = test: Antiproliferative activity against human K562 cells assessed as reduction in cell viability at 25 uM after 72 hrs by MTS assay relative to control; format: functional
Tubulin (Homo sapiens) [9] = target: T1, Tubulin (Homo sapiens) (UniProt P68371+Q9H4B7+P0DPH7+P68366+Q13509+Q71U36+P04350+Q3ZCM7+P07437+P68363+Q9BQE3+Q6PEY2+Q13885+Q9BVA1+Q9BUF5); test: Inhibition of microtubule polymerization in human MV4-11 cells assessed as increase in histone H3 phosphorylation at S10 residue at 0.35 to 2.5 uM after 24 hrs by propidium iodide staining based flow cytometric analysis; format: cell-based; details: dose microM 0.35-2.5, time 24.0 hrs
[10] = system: Receptor-type tyrosine-protein kinase FLT3 (Homo sapiens), P36888 [UNDEFINED MUTATION]; test: Inhibition of FLT3 ITD mutant in human MV4-11 cells assessed as inhibition of STAT5 phosphorylation at 1.56 to 50 uM incubated for 2 hrs by immunoblotting analysis; format: cell-based; details: dose microM 1.56-50, time 2.0 hrs
MOLM-13 [11] = test: Antiproliferative activity against human MOLM-13 cells harboring D835Y mutant assessed as reduction in cell viability after 72 hrs by MTS assay; format: functional
[12] = target: T2, Receptor-type tyrosine-protein kinase FLT3 (Homo sapiens, UniProt P36888); test: Inhibition of FLT3 (unknown origin) in presence of ATP
T2 sequence (P36888 whole entry): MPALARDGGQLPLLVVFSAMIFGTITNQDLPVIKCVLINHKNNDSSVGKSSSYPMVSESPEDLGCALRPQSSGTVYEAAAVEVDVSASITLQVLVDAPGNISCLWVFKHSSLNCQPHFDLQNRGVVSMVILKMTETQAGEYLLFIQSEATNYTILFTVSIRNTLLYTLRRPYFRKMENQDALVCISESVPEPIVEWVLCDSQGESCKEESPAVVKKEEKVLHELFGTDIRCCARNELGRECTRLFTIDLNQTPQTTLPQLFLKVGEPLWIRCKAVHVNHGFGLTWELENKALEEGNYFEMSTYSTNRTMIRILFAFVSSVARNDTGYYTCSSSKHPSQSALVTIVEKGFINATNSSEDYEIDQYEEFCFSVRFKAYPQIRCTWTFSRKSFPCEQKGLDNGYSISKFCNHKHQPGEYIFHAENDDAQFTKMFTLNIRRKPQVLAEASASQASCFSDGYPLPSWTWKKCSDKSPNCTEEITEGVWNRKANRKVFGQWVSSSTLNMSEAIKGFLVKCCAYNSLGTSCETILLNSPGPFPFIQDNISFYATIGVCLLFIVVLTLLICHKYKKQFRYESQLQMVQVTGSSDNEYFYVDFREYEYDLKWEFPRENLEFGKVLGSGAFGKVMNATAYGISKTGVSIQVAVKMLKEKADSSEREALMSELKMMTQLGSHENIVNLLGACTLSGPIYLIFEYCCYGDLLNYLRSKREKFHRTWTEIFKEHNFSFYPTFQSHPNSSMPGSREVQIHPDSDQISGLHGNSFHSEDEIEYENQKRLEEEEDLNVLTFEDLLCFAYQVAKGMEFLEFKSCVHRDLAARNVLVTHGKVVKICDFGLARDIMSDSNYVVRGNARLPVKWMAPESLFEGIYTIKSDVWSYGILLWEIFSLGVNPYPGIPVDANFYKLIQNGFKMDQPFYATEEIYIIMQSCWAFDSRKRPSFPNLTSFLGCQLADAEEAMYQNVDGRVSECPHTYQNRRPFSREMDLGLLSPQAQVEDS

[13] = Selectivity ratio of GI50 for antiproliferative activity against human THP-1 cells to GI50 antiproliferative activity against human MOLM-13 cells; format: functional
Tubulin (Homo sapiens) [14] = target: T1, Tubulin (Homo sapiens); test: Displacement of colchicine from tubulin (unknown origin) at 50 uM after 1 hr by fluorescence assay relative to control; format: protein-complex assay
Tubulin (Homo sapiens) [15] = target: T1, Tubulin (Homo sapiens); test: Inhibition of microtubule polymerization in human HCT-116 cells assessed as increase in histone H3 phosphorylation at S10 residue at 25 uM after 8 hrs by DOT blot analysis; format: cell-based
Tubulin (Homo sapiens) [16] = target: T1, Tubulin (Homo sapiens); test: Inhibition of microtubule polymerization in human HCT-116 cells assessed as increase in histone H3 phosphorylation at S10 residue at 0.78 uM after 8 hrs by Western blot analysis; format: cell-based
Tubulin (Homo sapiens) [17] = target: T1, Tubulin (Homo sapiens); test: Inhibition of microtubule repolymerization in human A549 cells at 5 uM preincubated for 30 mins followed by 10 min incubation at ice cold methanol by DAPI staining based confocal microscopic method relative to control; format: cell-based; details: time 40.0 min
MV4-11 [18] = test: Induction of apoptosis in human MV4-11 cells assessed as increase in cleaved caspase-3 level at 0.313 to 5 uM after 24 hrs by Western blot analysis; format: functional, cell-based; details: dose microM 0.313-5, time 24.0 hrs
Tubulin (Homo sapiens) [19] = target: T1, Tubulin (Homo sapiens); test: Inhibition of microtubule polymerization in human MV4-11 cells assessed as increase in histone H3 phosphorylation at S10 residue at 0.78 uM after 8 hrs by Western blot analysis; format: cell-based
Tubulin (Homo sapiens) [20] = target: T1, Tubulin (Homo sapiens); test: Inhibition of tubulin polymerization (unknown origin) measured every 30 sec for 1 hrs in presence of GTP by turbidimetric analysis; format: protein-complex assay; details: dose microM 5-25, time 1.0 hrs
MV4-11 [21] = test: Induction of apoptosis in human MV4-11 cells at 0.31 to 2.5 uM after 24 to 48 hrs by Annexin V/prpidium iodide staining based flow cytometric analysis; format: functional, cell-based; details: dose microM 0.31-2.5, time hrs 24-48
[22] = Resistant index, ratio of GI50 for antiproliferative activity against human MOLM-13 cells harboring D835Y mutant to antiproliferative activity against human MOLM-13 cells; format: functional
Tubulin (Homo sapiens) [23] = target: T1, Tubulin (Homo sapiens); test: Displacement of colchicine from tubulin (unknown origin) at 25 uM after 1 hr by fluorescence assay relative to control; format: protein-complex assay
MV4-11 [24] = test: Induction of apoptosis in human MV4-11 cells assessed as increase in cleaved PARP level at 0.313 to 5 uM after 24 hrs by Western blot analysis; format: functional, cell-based; details: dose microM 0.313-5, time 24.0 hrs
[25] = Selectivity ratio of GI50 for antiproliferative activity against human THP-1 cells to GI50 antiproliferative activity against human MV4-11 cells; format: functional
[26] = system: Receptor-type tyrosine-protein kinase FLT3 (Homo sapiens), P36888 [UNDEFINED MUTATION]; test: Inhibition of FLT3 ITD mutant in human MV4-11 cells assessed as inhibition of ERK phosphorylation at 1.56 to 50 uM incubated for 2 hrs by immunoblotting analysis; format: cell-based; details: dose microM 1.56-50, time 2.0 hrs
Tubulin (Homo sapiens) [27] = target: T1, Tubulin (Homo sapiens); test: Displacement of colchicine in tubulin (unknown origin) at 12.5 uM after 1 hr by fluorescence assay relative to control; format: protein-complex assay
[28] = system: Receptor-type tyrosine-protein kinase FLT3 (Homo sapiens), P36888 [UNDEFINED MUTATION]; test: Inhibition of FLT3 ITD mutant in human MV4-11 cells assessed as inhibition of STAT5 phosphorylation at 25 to 50 uM incubated for 2 hrs by immunoblotting analysis; format: cell-based; details: dose microM 25-50, time 2.0 hrs

O=C(/C=C/c1ccccc1)c1ccccc1O [2'-HYDROXYCHALCONE]
inhibition [1]: Active
Activity (MV4-11 [2]): Active
GI50 (MOLM-13 [3]): > 10 µM
GI50 (THP-1): > 10 µM
Activity (K562 [4]): Active
inhibition [5]: 39.5%
Activity (MV4-11 [6]): Active
GI50 (MV4-11 [7]): > 10 µM
Activity (K562 [8]): Active

O=C(/C=C/c1ccc(Cl)cc1)c1ccc(OCc2ccccc2)cc1
Activity (MV4-11 [2]): inactive
Activity (K562 [4]): inactive
Activity (MV4-11 [6]): inactive
Activity (K562 [8]): inactive

C=CCOc1cc(OC)ccc1C(=O)/C=C/c1ccc(OC)cc1
inhibition (Tubulin (Homo sapiens) [9]): Active
inhibition [10]: Active
GI50 (MOLM-13 [11]): 0.22 µM
IC50 [12]: 5.7 µM
RatioGI50 [13]: >2
inhibition (Tubulin (Homo sapiens) [14]): 87%
inhibition (Tubulin (Homo sapiens) [15]): Active
Activity (MV4-11 [2]): >95%
inhibition (Tubulin (Homo sapiens) [16]): Active
GI50 (MOLM-13 [3]): 0.2 µM
inhibition (Tubulin (Homo sapiens) [17]): 100%
GI50 (THP-1): 5.4 µM
Activity (MV4-11 [18]): Active
inhibition (Tubulin (Homo sapiens) [19]): Active
inhibition (Tubulin (Homo sapiens) [20]): Active
Activity (MV4-11 [21]): Active
Activity (K562 [4]): >95%
RatioGI50 [22]: 1
inhibition (Tubulin (Homo sapiens) [23]): 80%
Activity (MV4-11 [24]): Active
RatioGI50 [25]: >2
inhibition [26]: Active
Activity (MV4-11 [6]): >95%
GI50 (MV4-11 [7]): 0.24 µM
Activity (K562 [8]): >95%
inhibition (Tubulin (Homo sapiens) [27]): 75%

COc1cc2c(N3CCN(C(=O)Nc4ccc(OC(C)C)cc4)CC3)ncnc2cc1OCCCN1CCCCC1 [TANDUTINIB]
GI50 (MOLM-13 [11]): 1.9 µM
GI50 (MOLM-13 [3]): 0.052 µM
RatioGI50 [22]: 35.8

O=C(/C=C/c1ccccc1Cl)c1ccc(OCc2ccccc2)cc1
Activity (MV4-11 [2]): inactive
Activity (K562 [4]): inactive
Activity (MV4-11 [6]): inactive
Activity (K562 [8]): inactive

COc1ccc(/C=C/C(=O)c2ccc3c(c2O)C=CC(C)(C)O3)cc1
Activity (MV4-11 [2]): inactive
Activity (K562 [4]): inactive
Activity (MV4-11 [6]): inactive
Activity (K562 [8]): inactive

COc1ccc(/C=C/C(=O)c2ccc(OCc3ccccc3)cc2)c(OC)c1OC
Activity (MV4-11 [2]): inactive
Activity (K562 [4]): inactive
Activity (MV4-11 [6]): inactive
Activity (K562 [8]): inactive

O=C(/C=C/c1ccc(OCc2ccccc2)cc1)c1ccccc1
Activity (MV4-11 [2]): inactive
Activity (K562 [4]): inactive
Activity (MV4-11 [6]): inactive
Activity (K562 [8]): inactive

COc1ccc(C(=O)/C=C/c2ccc(OC)c(OC)c2)c(O)c1
inhibition [1]: Active
IC50 [12]: 13.8 µM
Activity (MV4-11 [2]): Active
GI50 (MOLM-13 [3]): 10 µM
GI50 (THP-1): > 100 µM
Activity (K562 [4]): Active
inhibition [28]: Active
Activity (MV4-11 [6]): Active
GI50 (MV4-11 [7]): > 10 µM
Activity (K562 [8]): Active

COc1cccc(/C=C/C(=O)c2ccc(OCc3ccccc3)cc2)c1
Activity (MV4-11 [2]): inactive
Activity (K562 [4]): inactive
Activity (MV4-11 [6]): inactive
Activity (K562 [8]): inactive

O=C(/C=C/c1ccc(F)cc1)c1ccc(OCc2ccccc2)cc1
Activity (MV4-11 [2]): inactive
Activity (K562 [4]): inactive
Activity (MV4-11 [6]): inactive
Activity (K562 [8]): inactive

COC(=O)Nc1nc2cc(C(=O)c3cccs3)ccc2[nH]1
inhibition (Tubulin (Homo sapiens) [14]): 93.5%

O=C(/C=C/c1ccccc1)c1ccc(OCc2ccccc2)cc1
Activity (MV4-11 [2]): inactive
Activity (K562 [4]): inactive
Activity (MV4-11 [6]): inactive
Activity (K562 [8]): inactive

COc1ccc(/C=C/C(=O)c2ccc(OC)cc2O)cc1
Activity (MV4-11 [2]): Active
GI50 (MOLM-13 [3]): > 10 µM
GI50 (THP-1): > 100 µM
Activity (K562 [4]): Active
inhibition [28]: Active
Activity (MV4-11 [6]): Active
GI50 (MV4-11 [7]): > 10 µM
Activity (K562 [8]): Active
